Target: human PAD4 (hPAD4) (Homo sapiens, UniProt Q9UM07)
Experiment: RFMS human PAD4 functional assay (rapid-fire mass spectrum)
Type: biochemical
Settings: 5 nM hPAD4 enzyme, 250 μM BAEE, 50 μM Calcium; 30 min preincubation, 90 min reaction at 37° C.
Summary of the method: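 PAD4 (10 nM) preincubated 30 min with compound (top final 50 μM), then BAEE substrate added in pH 7.5 HEPES buffer with DTT, 50 μM calcium, TPEN; 90 min at 37° C. After TCA quench, citrulline derivatized with phenyl glyoxal (4 mM final, 30 min, 37° C) and quantified by RapidFire MS against internal standard.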

Sequence of human PAD4 (hPAD4) (Q9UM07 whole entry): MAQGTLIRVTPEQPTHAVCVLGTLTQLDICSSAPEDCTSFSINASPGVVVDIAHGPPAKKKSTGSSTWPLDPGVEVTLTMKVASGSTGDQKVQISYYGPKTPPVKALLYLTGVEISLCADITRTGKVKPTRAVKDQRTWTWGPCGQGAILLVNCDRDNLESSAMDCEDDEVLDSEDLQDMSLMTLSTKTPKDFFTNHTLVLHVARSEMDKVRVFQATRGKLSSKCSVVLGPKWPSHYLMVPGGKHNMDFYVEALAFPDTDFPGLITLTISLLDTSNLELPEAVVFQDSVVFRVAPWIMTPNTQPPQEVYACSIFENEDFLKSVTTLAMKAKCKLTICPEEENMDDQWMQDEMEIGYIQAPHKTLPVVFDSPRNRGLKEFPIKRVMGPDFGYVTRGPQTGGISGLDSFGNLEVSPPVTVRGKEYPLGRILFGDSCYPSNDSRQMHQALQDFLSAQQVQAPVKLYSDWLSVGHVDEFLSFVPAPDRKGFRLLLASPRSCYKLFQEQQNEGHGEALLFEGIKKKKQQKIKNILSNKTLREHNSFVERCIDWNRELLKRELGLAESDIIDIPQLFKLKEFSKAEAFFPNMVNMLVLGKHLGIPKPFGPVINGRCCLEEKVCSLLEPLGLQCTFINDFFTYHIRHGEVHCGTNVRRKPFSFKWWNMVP

Row | SMILES | IC50 [nM]
1 | COc1cc(C(=O)N2CC3CCC2[C@@H]3N)cc2nc(-c3cc4cccnc4n3CC3CC3)n([C@H]3C[C@H](NC(C)=O)C3)c12 (stereo partly drawn) [Example 302, N-[(1r,3r)-3-{5-[(1R,4R,7R)-7-amino-2-azabicyclo[2.2.1]heptane-2-carbonyl]-2-[1-(cyclopropylmethyl)-1H-pyrrolo[2,3-b]pyridin-2-yl]-7-methoxy-1H-1,3-benzodiazol-1-yl)cyclobutyl]acetamide] | 1210
2 | COc1cc(C(=O)N2C[C@H]3CC[C@@H]2[C@@H]3N)cc2nc(-c3cc4cccnc4n3CC3CC3)n(CC3CN(c4cnccn4)C3)c12 [Example 74, (1R,4R,7R)-2-{2-[1-(cyclopropylmethyl)-1H-pyrrolo[2,3-b]pyridin-2-yl]-7-methoxy-1-{[1-(pyrazin-2-yl)azetidin-3-yl]methyl}-1H-1,3-benzodiazole-5-carbonyl}-2-azabicyclo[2.2.1]heptan-7-amine] | 210
3 | COc1cc(C(=O)N2C[C@H](N)C[C@@H](F)C2)cc2nc(-c3cc4ccccc4n3CC3CC3)n(CC3CC(=O)N(C)C3)c12 (mixture of isomers) [Example 281, 4-({5-[(3R,5R)-3-amino-5-fluoropiperidine-1-carbonyl]-2-[1-(cyclopropylmethyl)-1H-indol-2-yl]-7-methoxy-1H-1,3-benzodiazol-1-yl}methyl)-1-methylpyrrolidin-2-one] | 649
4 | N[C@@H]1[C@@H]2CC[C@H]1N(C(=O)c1cc(Cl)c3c(c1)nc(-c1cc4cccnc4n1CC1CC1)n3CC1CN(C(=O)c3ccncc3)C1)C2 [Example 131, (1R,4R,7R)-2-{7-chloro-2-[1-(cyclopropylmethyl)-1H-pyrrolo[2,3-b]pyridin-2-yl]-1-{[1-(pyridine-4-carbonyl)azetidin-3-yl]methyl}-1H-1,3-benzodiazole-5-carbonyl}-2-azabicyclo[2.2.1]heptan-7-amine] | 138
5 | COc1cc(C(=O)N2CCC[C@@H](N)C2)cc2nc(-c3cc4cccnc4n3CC3CC3)n(C3CNC3)c12 [Example 310, (3R)-1-[1-(azetidin-3-yl)-2-[1-(cyclopropylmethvl)-1H-pyrrolo[2,3-b]pyridin-2-yl]-7-methoxy-1H-1,3-benzodiazole-5-carbonyl]piperidin-3-amine] | 1900
6 | COc1cc(C(=O)N2C[C@H](N)C[C@@H](F)C2)cc2nc(-c3cc4ccccc4n3CC3CC3)n(Cc3ccnn3C)c12 [Example 277, (3R,5R)-1-{2-[1-(cyclopropylmethyl)-1H-indol-2-yl]-7-methoxy-1-[(1-methyl-1H-pyrazol-5-yl)methyl]-1H-1,3-benzodiazole-5-carbonyl}-5-fluoropiperidin-3-amine] | 319
7 | COc1cc(C(=O)N2CC3CCC2[C@@H]3N)cc2nc(-c3cc4cccnc4n3CC3CC3)n([C@H]3C[C@@H](NS(C)(=O)=O)C3)c12 (stereo partly drawn) [Example 297, N-[(1s,3s)-3-{5-[(1R,4R,7R)-7-amino-2-azabicyclo[2.2.1]heptane-2-carbonyl]-2-[1-(cyclopropylmethyl)-1H-pyrrolo[2,3-b]pyridin-2-yl]-7-methoxy-1H-1,3-benzodiazol-1-yl}cyclobutyl]methanesulfonamide] | 2100
8 | COc1cc(C(=O)N2C[C@H]3CC[C@@H]2[C@@H]3N)cc2nc(-c3cc4ccc(Cl)cc4n3CC3CC3)n(CC3CN(c4cncc(C#N)c4)C3)c12 [Example 87, 5-[3-({5-[(1R,4R,7R)-7-amino-2-azabicyclo[2.2.1]heptane-2-carbonyl]-2-[6-chloro-1-(cyclopropylmethyl)-1H-indol-2-yl]-7-methoxy-1H-1,3-benzodiazol-1-yl}methyl)azetidin-1-yl]pyridine-3-carbonitrile] | 2280
9 | COc1cc(C(=O)N2C[C@H]3CC[C@@H]2[C@@H]3N)cc2nc(-c3cc4cccnc4n3CC3CC3)n(C3CN(c4cnc(C#N)nc4)C3)c12 [Example 75, 5-(3-{5-[(1R,4R,7R)-7-amino-2-azabicyclo[2.2.1]heptane-2-carbonyl]-2-[1-(cyclopropylmethyl)-1H-pyrrolo[2,3-b]pyridin-2-yl]-7-methoxy-1H-1,3-benzodiazol-1-yl}azetidin-1-yl)pyrimidine-2-carbonitrile] | 216
10 | COc1cc(C(=O)N2C[C@H]3CC[C@@H]2[C@@H]3N)cc2nc(-c3cc4cccnc4n3CC3CC3)n(CC3CN(C(C)=O)C3)c12 [Example 187, 1-[3-({5-[(1R,4R,7R)-7-amino-2-azabicyclo[2.2.1]heptane-2-carbonyl]-2-[1-(cyclopropylmethyl)-1H-pyrrolo[2,3-b]pyridin-2-yl]-7-methoxy-1H-1,3-benzodiazol-1-yl}methyl)azetidin-1-yl]ethan-1-one] | 358
11 | COc1cc(C(=O)N2C[C@H]3CC[C@@H]2[C@@H]3N)cc2nc(-c3cc4cccnc4n3C)n(CC3CN(c4nccnc4C#N)C3)c12 [Example 39, 3-[3-({5-[(1R,4R,7R)-7-amino-2-azabicyclo[2.2.1]heptane-2-carbonyl]-7-methoxy-2-{1-methyl-1H-pyrrolo[2,3-b]pyridin-2-yl}-1H-1,3-benzodiazol-1-yl}methyl)azetidin-1-yl]pyrazine-2-carbonitrile] | 94

Now those with a lower IC50, led by results:

Row | IC50 [nM] | SMILES
12 | 66 | COc1cc(C(=O)N2CC3CCC2[C@@H]3N)cc2nc(-c3cc4ccccc4n3CC3CC3)n(Cc3cnn(-c4ncccn4)c3)c12 (stereo partly drawn) [Example 402, (7R)-2-{2-[1-(cyclopropylmethyl)-1H-indol-2-yl]-7-methoxy-1-{[1-(pyrimidin-2-yl)-1H-pyrazol-4-yl]methyl}-1H-1,3-benzodiazole-5-carbonyl}-2-azabicyclo[2.2.1]heptan-7-amine]
13 | 51 | COc1cc(C(=O)N2C[C@H]3CC[C@@H]2[C@@H]3N)cc2nc(-c3cc4cccnc4n3CC3CC3)n(CC3CN(C(=O)c4ccncn4)C3)c12 [Example 111, (1R,4R,7R)-2-{2-[1-(cyclopropylmethyl)-1H-pyrrolo[2,3-b]pyridin-2-yl]-7-methoxy-1-{[1-(pyrimidine-4-carbonyl)azetidin-3-yl]methyl}-1H-1,3-benzodiazole-5-carbonyl}-2-azabicyclo[2.2.1]heptan-7-amine]
14 | 47 | COc1cc(C(=O)N2C[C@H]3CC[C@@H]2[C@@H]3N)cc2nc(-c3cc4cccnc4n3CC3CC3)n(C[C@H]3CCN(c4cncnc4C#N)C3)c12 [Example 206, 5-[(3S)-3-({5-[(1R,4R,7R)-7-amino-2-azabicyclo[2.2.1]heptane-2-carbonyl]-2-[1-(cyclopropylmethyl)-1H-pyrrolo[2,3-b]pyridin-2-yl]-7-methoxy-1H-1,3-benzodiazol-1-yl}methyl)pyrrolidin-1-yl]pyrimidine-4-carbonitrile]
15 | 23 | COc1cc(C(=O)N2CC3CCC2[C@@H]3N)cc2nc(-c3cc4ccccc4n3CC3CC3)n(Cc3cnn(-c4cnccn4)c3)c12 (stereo partly drawn) [Example 358, (7R)-2-{2-[1-(cyclopropylmethyl)-1H-mdol-2-yl]-7-methoxy-1-{[1-(pyrazin-2-yl)-1H-pyrazol-4-yl]methyl}-1H-1,3-benzodiazole-5-carbonyl}-2-azabicyclo[2.2.1]heptan-7-amine]
16 | 23 | COc1cccc(C(=O)N2CC(Cn3c(-c4cc5ccccc5n4CC4CC4)nc4cc(C(=O)N5C[C@H]6CC[C@@H]5[C@@H]6N)cc(OC)c43)C2)c1 [Example 158, (1R,4R,7R)-2-{2-[1-(cyclopropylmethyl)-1H-indol-2-yl]-7-methoxy-1-{[1-(3-methoxybenzoyl)azetidin-3-yl]methyl}-1H-1,3-benzodiazole-5-carbonyl}-2-azabicyclo[2.2.1]heptan-7-amine]
17 | 41 | COc1cc(C(=O)N2C[C@H]3CC[C@@H]2[C@@H]3N)cc2nc(-c3cc4ccccc4n3CC3CC3)n(CC3CN(C(=O)c4cccnc4)C3)c12 [Example 171, (1R,4R,7R)-2-{2-[1-(cyclopropylmethyl)-1H-indol-2-yl]-7-methoxy-1-{[1-(pyridine-3-carbonyl)azetidin-3-yl]methyl}-1H-1,3-benzodiazole-5-carbonyl}-2-azabicyclo[2.2.1]heptan-7-amine]
18 | 20 | N#Cc1ccc(C(=O)N2CC(Cn3c(-c4cc5ccccc5n4CC4CC4)nc4cc(C(=O)N5C[C@H]6CC[C@@H]5[C@@H]6N)cc(Cl)c43)C2)cc1 [Example 150, 4-[3-({5-[(1R,4R,7R)-7-amino-2-azabicyclo[2.2.1]heptane-2-carbonyl]-7-chloro-2-[1-(cyclopropylmethyl)-1H-indol-2-yl]-1H-1,3-benzodiazol-1-yl}methyl)azetidine-1-carbonyl]benzonitrile]
19 | 48 | COc1cc(C(=O)N2C[C@H](N)C[C@@H](F)C2)cc2nc(-c3cc4cccnc4n3CC3CC3)n(CC3CN(C(=O)c4ccccc4)C3)c12 [Example 452, (3R,5R)-1-{[(1-benzoylazetidin-3-yl)methyl]-2-[1-(cyclopropylmethyl)-1H-pyrrolo[2,3-b]pyridin-2-yl]-7-methoxy-1H-1,3-benzodiazole-5-carbonyl}-5-fluoropiperidin-3-amine]
20 | 51 | COc1cc(C(=O)N2C[C@H]3CC[C@@H]2[C@@H]3N)cc2nc(-c3cc4cccnc4n3CC3CC3)n(CC3CN(C(=O)c4ccc(C#N)cc4)C3)c12 [Example 112, 4-[3-({5-[(1R,4R,7R)-7-amino-2-azabicyclo[2.2.1]heptane-2-carbonyl]-2-[1-(cyclopropylmethyl)-1H-pyrrolo[2,3-b]pyridin-2-yl]-7-methoxy-1H-1,3-benzodiazol-1-yl}methyl)azetidine-1-carbonyl]benzonitrile]
21 | 55 | COc1cc(C(=O)N2CC3CCC2[C@@H]3N)cc2nc(-c3cc4ccccc4n3CC3CC3)n(CC3CC(=O)N(C)C3)c12 (mixture of isomers) [Example 262, 4-({5-[(1R,4R,7R)-7-amino-2-azabicyclo[2.2.1]heptane-2-carbonyl]-2-[1-(cyclopropylmethy!)-1H-indol-2-yl]-7-methoxy-1H-1,3-benzodiazol-1-yl}methyl)-1-methylpyrrolidin-2-one]
